Measured values: patent US8822502B2, “Insecticidal compounds” (Syngenta Crop Protection LLC, priority 2008, dated 2014)

Tests used:
Assay type in all cases: in vivo
[1] = system: Diabrotica balteata; assay: Diabrotica balteata artificial diet test; settings: 120 h, application rate 200 ppm (concentration in well 18 ppm), L2 larvae, 5 days, larval mortality, growth regulation
Experimental: Diabrotica Balteata (Corn Root Worm):
(§1) A 24-well microtiter plate (MTP) with artificial diet was treated with test solutions at an application rate of 200 ppm (concentration in well 18 ppm) by pipetting. After drying, the MTP's were infested with L2 larvae (6-10 per well). After an incubation period of 5 days, samples were checked for larval mortality and growth regulation.

[2] = system: Spodoptera littoralis; assay: Spodoptera littoralis cotton leaf disc spray test; settings: foliar, 72 h, application rate 200 ppm, sprayed cotton leaf discs, L1 larvae, 3 days after treatment, mortality, feeding behavior, growth regulation
Source text: Spodoptera Littoralis (Egyptian Cotton Leafworm):
Cotton leaf discs were placed on agar in a 24-well microtiter plate and sprayed with test solutions at an application rate of 200 ppm. After drying, the leaf discs were infested with 5 L1 larvae. The samples were checked for mortality, feeding behavior, and growth regulation 3 days after treatment (DAT).

[3] = system: Heliothis virescens; assay: Heliothis virescens egg / artificial diet test; settings: 96 h, application rate 200 ppm (concentration in well 18 ppm), eggs 0-24 h old on artificial diet, 4 days, egg mortality, larval mortality, growth regulation
Experimental: Heliothis Virescens (Tobacco Budworm):
Eggs (0-24 h old) were placed in 24-well microtiter plate on artificial diet and treated with test solutions at an application rate of 200 ppm (concentration in well 18 ppm) by pipetting. After an incubation period of 4 days, samples were checked for egg mortality, larval mortality, and growth regulation.

[4] = system: Plutella xylostella; assay: Plutella xylostella artificial diet test; settings: 144 h, application rate 200 ppm (concentration in well 18 ppm), L2 larvae, 6 days, larval mortality, growth regulation
Experimental: Plutella Xylostella (Diamond Back Moth):
as §1, with “24-well” for “A 24-well”, “(7-12” for “(6-10”, “6” for “5”

[5] = system: Tetranychus urticae; assay: Tetranychus urticae bean leaf disc spray test; settings: foliar, 192 h, application rate 200 ppm, sprayed bean leaf discs, mite populations of mixed ages, 8 days, egg, larval and adult mortality
Source text: Tetranychus Urticae (Two-Spotted Spider Mite):
Bean leaf discs on agar in 24-well microtiter plates were sprayed with test solutions at an application rate of 200 ppm. After drying, the leaf discs are infested with mite populations of mixed ages. 8 days later, discs are checked for egg mortality, larval mortality, and adult mortality.

[6] = system: Thrips tabaci; assay: Thrips tabaci sunflower leaf disc spray test; settings: foliar, 168 h, application rate 200 ppm, sprayed sunflower leaf discs, population of mixed ages, 7 days, mortality
Experimental: Thrips Tabaci (Onion Thrips):
Sunflower leaf discs were placed on agar in a 24-well microtiter plate and sprayed with test solutions at an application rate of 200 ppm. […] After an incubation period of 7 days, samples were checked for mortality.

Measured: pest or weed control at 200 ppm

Cc1cc(C2=NOC(c3cc(Cl)cc(Cl)c3)(C(F)(F)F)C2Br)ccc1C(=O)NC1C[S+]([O-])C1 (single isomer, unassigned) [A25, 4-[4-bromo-5-(3,5-dichloro-phenyl)-5-trifluoromethyl-4,5-dihydro-isoxazol-3-yl]-2-methyl-N-(1-oxo-thietan-3-yl)-benzamide]
≥ 80%: [1]

CCCCNC(=O)c1ccc(C2=NOC(c3cc(Cl)cc(Cl)c3)(C(F)(F)F)C2Br)cc1C (centres unmarked) [A1, 4-[4-bromo-5-(3,5-dichloro-phenyl)-5-trifluoromethyl-4,5-dihydro-isoxazol-3-yl]-N-butyl-2-methyl-benzamide]
not listed: [6]
≥ 80%: all other assays above

Cc1cc(C2=NOC(c3cc(Cl)cc(Cl)c3)(C(F)(F)F)C2Br)ccc1C(=O)Nc1cccc(F)c1 (centres unmarked) [A15]
≥ 80%: all assays above

CCCCNC(=O)c1ccc(C2=NOC(c3cc(Cl)cc(Cl)c3)(C(F)(F)F)C2Cl)cc1C (centres unmarked) [B1]
≥ 80%: all assays above

CCNC(=O)c1ccc(C2=NOC(c3cc(Cl)cc(Cl)c3)(C(F)(F)F)C2Cl)cc1C (centres unmarked) [B3]
≥ 80%: all assays above

CCC(C)NC(=O)c1ccc(C2=NOC(c3cc(Cl)cc(Cl)c3)(C(F)(F)F)C2Cl)cc1C (centres unmarked) [B6]
≥ 80%: all assays above

Cc1cc(C2=NOC(c3cc(Cl)cc(Cl)c3)(C(F)(F)F)C2Cl)ccc1C(=O)NCc1ccccc1 (centres unmarked) [B8]
≥ 80%: all assays above

Cc1cc(C2=NOC(c3cc(Cl)cc(Cl)c3)(C(F)(F)F)C2Cl)ccc1C(=O)Nc1cccc(F)c1 (centres unmarked) [B14]
≥ 80%: [2] | [3] | [4]

Cc1cc(C2=NOC(c3cc(Cl)cc(Cl)c3)(C(F)(F)F)C2Cl)ccc1C(=O)NC1CSC1 (centres unmarked) [B21]
≥ 80%: all assays above

Cc1cc(C2=NOC(c3cc(Cl)cc(Cl)c3)(C(F)(F)F)C2Cl)ccc1C(=O)NC1CCC1 (centres unmarked) [B23]
≥ 80%: all assays above

Cc1cc(C2=NOC(c3cc(Cl)cc(Cl)c3)(C(F)(F)F)C2(F)F)ccc1C(=O)NCc1ccccn1 (centres unmarked) [C1, 4-[5-(3,5-dichloro-phenyl)-4,4-difluoro-5-trifluoromethyl-4,5-dihydro-isoxazol-3-yl]-2-methyl-N-pyridin-2-ylmethyl-benzamide]
not listed: [6]
≥ 80%: all other assays above

CCCCNC(=O)c1ccc(C2=NOC(c3cc(Cl)cc(Cl)c3)(C(F)(F)F)C2SC)cc1C (centres unmarked) [D1, N-butyl-4-[5-(3,5-dichloro-phenyl)-4-methylsulfanyl-5-trifluoromethyl-4,5-dihydro-isoxazol-3-yl]-2-methyl-benzamide]
≥ 80%: [2] | [3] | [4] | [1]

CCCCNC(=O)c1ccc(C2=NOC(c3cc(Cl)cc(Cl)c3)(C(F)(F)F)C2S(C)(=O)=O)cc1C (centres unmarked) [D2, N-butyl-4-[5-(3,5-dichloro-phenyl)-4-methylsulfonyl-5-trifluoromethyl-4,5-dihydro-isoxazol-3-yl]-2-methyl-benzamide]
≥ 80%: [2] | [4]

CSC1C(c2ccc(C(=O)NC3CSC3)c(C)c2)=NOC1(c1cc(Cl)cc(Cl)c1)C(F)(F)F (centres unmarked) [D3, 4-[5-(3,5-dichloro-phenyl)-4-methylsulfanyl-5-trifluoromethyl-4,5-dihydro-isoxazol-3-yl]-2-methyl-N-thietan-3-yl-benzamide]
not listed: [6]
≥ 80%: all other assays above

Cc1cc(C2=NOC(c3cc(Cl)cc(Cl)c3)(C(F)(F)F)C2S(C)(=O)=O)ccc1C(=O)NC1CSC1 (centres unmarked) [D4, 4-[5-(3,5-dichloro-phenyl)-4-methylsulfonyl-5-trifluoromethyl-4,5-dihydro-isoxazol-3-yl]-2-methyl-N-thietan-3-yl-benzamide]
≥ 80%: [3] | [5]

CCCCNC(=O)c1ccc(C2=NOC(c3cc(Cl)cc(Cl)c3)(C(F)(F)F)C2C)cc1C (centres unmarked) [E1, N-butyl-4-[5-(3,5-dichloro-phenyl)-4-methyl-5-trifluoromethyl-4,5-dihydro-isoxazol-3-yl]-2-methyl-benzamide]
≥ 80%: all assays above

Cc1cc(C2=NOC(c3cc(Cl)cc(Cl)c3)(C(F)(F)F)C2C)ccc1C(=O)NC1CSC1 (centres unmarked) [E2, 4-[5-(3,5-dichloro-phenyl)-4-methyl-5-trifluoromethyl-4,5-dihydro-isoxazol-3-yl]-2-methyl-N-thietan-3-yl-benzamide]
≥ 80%: all assays above

CCNC(=O)c1ccc(C2=NOC(c3cc(Cl)cc(Cl)c3)(C(F)(F)F)C2Br)c2ccccc12 (centres unmarked) [F2]
≥ 80%: [1]

CCCCNC(=O)c1ccc(C2=NOC(c3cc(Cl)cc(Cl)c3)(C(F)(F)F)C2Br)c2ccccc12 (centres unmarked) [F3]
≥ 80%: [2] | [3] | [4] | [6]

CCC(C)NC(=O)c1ccc(C2=NOC(c3cc(Cl)cc(Cl)c3)(C(F)(F)F)C2Br)c2ccccc12 (centres unmarked) [F6]
not listed: [5]
≥ 80%: all other assays above

O=C(NCc1ccccc1)c1ccc(C2=NOC(c3cc(Cl)cc(Cl)c3)(C(F)(F)F)C2Br)c2ccccc12 (centres unmarked) [F8]
not listed: [5]
≥ 80%: all other assays above

O=C(Nc1cccc(F)c1)c1ccc(C2=NOC(c3cc(Cl)cc(Cl)c3)(C(F)(F)F)C2Br)c2ccccc12 (centres unmarked) [F14]
not listed: [5]
≥ 80%: all other assays above

O=C(NC1CSC1)c1ccc(C2=NOC(c3cc(Cl)cc(Cl)c3)(C(F)(F)F)C2Br)c2ccccc12 (centres unmarked) [F21]
≥ 80%: all assays above
